Data reported in ChEMBL document CHEMBL5291721, “A preclinical secondary pharmacology resource illuminates target-adverse drug reaction associations of marketed drugs” (Nat Commun, 2023).

Experiments:
Progesterone receptor = target: T1, Progesterone receptor (Homo sapiens, UniProt P06401)
T1 sequence (P06401 whole entry): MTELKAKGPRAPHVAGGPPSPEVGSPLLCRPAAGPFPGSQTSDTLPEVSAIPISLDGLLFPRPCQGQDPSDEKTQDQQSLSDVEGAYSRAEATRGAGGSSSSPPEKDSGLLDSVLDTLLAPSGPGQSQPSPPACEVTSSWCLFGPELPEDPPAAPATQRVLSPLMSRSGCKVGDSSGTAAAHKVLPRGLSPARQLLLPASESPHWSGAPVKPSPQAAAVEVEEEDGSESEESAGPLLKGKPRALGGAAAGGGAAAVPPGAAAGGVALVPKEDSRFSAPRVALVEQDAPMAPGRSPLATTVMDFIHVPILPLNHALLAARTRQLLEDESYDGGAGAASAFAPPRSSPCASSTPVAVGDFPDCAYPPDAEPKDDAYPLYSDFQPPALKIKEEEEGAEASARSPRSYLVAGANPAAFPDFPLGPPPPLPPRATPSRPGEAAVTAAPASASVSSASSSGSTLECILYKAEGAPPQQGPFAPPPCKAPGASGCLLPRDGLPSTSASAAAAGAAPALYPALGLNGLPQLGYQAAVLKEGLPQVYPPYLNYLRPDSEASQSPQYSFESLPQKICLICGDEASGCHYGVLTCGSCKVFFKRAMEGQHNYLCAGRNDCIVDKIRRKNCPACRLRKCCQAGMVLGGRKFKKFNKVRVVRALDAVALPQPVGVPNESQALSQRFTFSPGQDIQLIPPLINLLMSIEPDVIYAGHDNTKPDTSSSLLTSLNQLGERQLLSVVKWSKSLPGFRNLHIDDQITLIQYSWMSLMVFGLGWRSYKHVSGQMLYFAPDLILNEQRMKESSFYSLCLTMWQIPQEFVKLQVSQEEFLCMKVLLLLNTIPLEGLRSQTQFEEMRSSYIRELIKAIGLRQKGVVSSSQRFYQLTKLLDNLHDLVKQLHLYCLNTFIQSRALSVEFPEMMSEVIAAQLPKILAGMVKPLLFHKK

[1] = target: cGMP-inhibited 3',5'-cyclic phosphodiesterase 3A (Homo sapiens, UniProt Q14432); type: functional
Sequence of cGMP-inhibited 3',5'-cyclic phosphodiesterase 3A (Q14432 whole entry): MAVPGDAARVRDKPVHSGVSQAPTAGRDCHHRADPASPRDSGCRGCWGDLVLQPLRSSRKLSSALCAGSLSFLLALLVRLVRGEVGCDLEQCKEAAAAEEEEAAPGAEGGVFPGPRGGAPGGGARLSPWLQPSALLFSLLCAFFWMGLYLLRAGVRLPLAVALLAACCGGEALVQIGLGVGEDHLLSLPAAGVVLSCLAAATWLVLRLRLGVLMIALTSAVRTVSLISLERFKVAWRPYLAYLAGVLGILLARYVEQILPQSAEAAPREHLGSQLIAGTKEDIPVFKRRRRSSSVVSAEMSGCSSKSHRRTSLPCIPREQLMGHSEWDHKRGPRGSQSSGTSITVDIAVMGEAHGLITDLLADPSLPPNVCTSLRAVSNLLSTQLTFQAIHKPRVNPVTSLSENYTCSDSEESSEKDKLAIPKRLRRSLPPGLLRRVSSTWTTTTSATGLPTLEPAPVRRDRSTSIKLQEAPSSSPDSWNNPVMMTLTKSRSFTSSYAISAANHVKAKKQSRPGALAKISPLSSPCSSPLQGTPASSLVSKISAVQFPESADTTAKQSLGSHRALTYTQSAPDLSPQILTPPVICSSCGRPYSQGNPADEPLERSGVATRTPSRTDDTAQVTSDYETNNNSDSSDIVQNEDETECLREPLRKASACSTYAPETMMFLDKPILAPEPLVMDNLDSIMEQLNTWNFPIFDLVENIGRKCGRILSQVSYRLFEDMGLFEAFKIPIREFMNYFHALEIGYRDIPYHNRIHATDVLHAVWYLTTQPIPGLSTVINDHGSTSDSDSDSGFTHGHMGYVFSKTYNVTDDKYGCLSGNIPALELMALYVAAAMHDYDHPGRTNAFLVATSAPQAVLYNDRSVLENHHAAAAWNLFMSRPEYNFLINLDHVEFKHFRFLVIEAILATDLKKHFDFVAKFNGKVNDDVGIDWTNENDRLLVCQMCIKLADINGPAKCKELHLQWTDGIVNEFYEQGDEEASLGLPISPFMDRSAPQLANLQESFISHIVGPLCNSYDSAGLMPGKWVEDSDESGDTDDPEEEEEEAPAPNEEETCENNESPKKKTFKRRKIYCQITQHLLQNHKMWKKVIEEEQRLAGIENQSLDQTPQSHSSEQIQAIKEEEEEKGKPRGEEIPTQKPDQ

[2] = target: Sodium-dependent noradrenaline transporter (Homo sapiens, UniProt P23975)
Sequence of Sodium-dependent noradrenaline transporter (P23975 whole entry): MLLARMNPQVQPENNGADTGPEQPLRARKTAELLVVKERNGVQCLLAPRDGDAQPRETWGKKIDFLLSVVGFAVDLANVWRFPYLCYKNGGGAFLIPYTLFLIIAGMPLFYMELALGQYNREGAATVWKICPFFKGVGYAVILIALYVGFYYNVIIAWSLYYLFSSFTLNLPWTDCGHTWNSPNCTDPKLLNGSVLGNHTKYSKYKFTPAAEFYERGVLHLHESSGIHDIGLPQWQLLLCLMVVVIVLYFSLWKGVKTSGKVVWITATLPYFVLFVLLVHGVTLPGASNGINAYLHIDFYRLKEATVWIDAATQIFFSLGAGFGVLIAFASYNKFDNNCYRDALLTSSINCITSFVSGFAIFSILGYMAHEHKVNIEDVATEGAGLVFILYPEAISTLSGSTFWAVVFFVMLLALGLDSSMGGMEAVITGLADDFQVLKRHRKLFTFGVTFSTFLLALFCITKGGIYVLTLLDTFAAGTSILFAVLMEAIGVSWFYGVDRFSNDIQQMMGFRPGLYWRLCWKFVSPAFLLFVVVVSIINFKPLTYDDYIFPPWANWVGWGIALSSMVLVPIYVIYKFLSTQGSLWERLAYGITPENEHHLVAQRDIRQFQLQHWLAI

[3] = target: Prostaglandin G/H synthase 1 (Homo sapiens, UniProt P23219); type: functional
Sequence of Prostaglandin G/H synthase 1 (P23219 whole entry): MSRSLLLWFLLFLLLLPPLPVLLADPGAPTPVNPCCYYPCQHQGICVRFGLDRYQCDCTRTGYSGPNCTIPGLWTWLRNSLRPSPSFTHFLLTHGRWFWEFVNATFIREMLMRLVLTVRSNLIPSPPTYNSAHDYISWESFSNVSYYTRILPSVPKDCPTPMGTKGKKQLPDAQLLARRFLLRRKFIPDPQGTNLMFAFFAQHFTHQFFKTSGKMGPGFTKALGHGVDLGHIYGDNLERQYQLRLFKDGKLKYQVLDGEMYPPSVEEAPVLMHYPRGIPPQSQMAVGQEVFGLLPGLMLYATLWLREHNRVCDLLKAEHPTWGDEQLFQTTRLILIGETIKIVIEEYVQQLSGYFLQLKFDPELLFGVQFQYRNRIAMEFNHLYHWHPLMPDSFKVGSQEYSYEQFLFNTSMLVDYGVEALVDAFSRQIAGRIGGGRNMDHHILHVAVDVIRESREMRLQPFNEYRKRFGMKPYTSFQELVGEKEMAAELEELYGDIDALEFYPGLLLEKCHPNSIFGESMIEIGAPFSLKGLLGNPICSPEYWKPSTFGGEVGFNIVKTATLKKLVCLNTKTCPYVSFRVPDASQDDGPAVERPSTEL

[4] = target: T2, Alpha-1A adrenergic receptor (Homo sapiens, UniProt P35348); type: functional, cell-based
T2 sequence (P35348 whole entry): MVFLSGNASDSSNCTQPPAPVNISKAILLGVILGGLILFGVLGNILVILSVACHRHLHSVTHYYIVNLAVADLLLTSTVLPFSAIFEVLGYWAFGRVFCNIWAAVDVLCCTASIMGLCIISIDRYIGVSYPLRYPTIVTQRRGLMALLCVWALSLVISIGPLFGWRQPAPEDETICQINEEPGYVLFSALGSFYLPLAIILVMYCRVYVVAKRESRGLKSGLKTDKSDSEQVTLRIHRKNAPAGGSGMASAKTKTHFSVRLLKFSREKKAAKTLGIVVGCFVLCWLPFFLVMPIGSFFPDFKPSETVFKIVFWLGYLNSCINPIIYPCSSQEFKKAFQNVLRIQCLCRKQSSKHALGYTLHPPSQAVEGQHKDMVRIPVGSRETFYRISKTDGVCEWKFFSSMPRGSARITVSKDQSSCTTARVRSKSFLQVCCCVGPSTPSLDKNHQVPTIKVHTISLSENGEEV

[5] = target: T3, 5-hydroxytryptamine receptor 1A (Homo sapiens, UniProt P08908)
T3 sequence (P08908 whole entry): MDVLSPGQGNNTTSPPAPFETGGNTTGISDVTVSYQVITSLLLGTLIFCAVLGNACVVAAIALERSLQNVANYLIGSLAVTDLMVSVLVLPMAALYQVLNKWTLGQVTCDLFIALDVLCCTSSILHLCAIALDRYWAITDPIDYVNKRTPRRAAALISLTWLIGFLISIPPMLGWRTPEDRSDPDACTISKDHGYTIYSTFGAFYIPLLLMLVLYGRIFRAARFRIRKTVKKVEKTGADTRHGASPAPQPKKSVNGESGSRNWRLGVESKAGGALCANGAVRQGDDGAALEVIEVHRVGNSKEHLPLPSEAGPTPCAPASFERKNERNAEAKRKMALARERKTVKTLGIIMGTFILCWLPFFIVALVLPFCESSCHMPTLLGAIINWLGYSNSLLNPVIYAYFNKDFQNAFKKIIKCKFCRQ

[6] = target: Sodium-dependent serotonin transporter (Homo sapiens, UniProt P31645)
Sequence of Sodium-dependent serotonin transporter (P31645 whole entry): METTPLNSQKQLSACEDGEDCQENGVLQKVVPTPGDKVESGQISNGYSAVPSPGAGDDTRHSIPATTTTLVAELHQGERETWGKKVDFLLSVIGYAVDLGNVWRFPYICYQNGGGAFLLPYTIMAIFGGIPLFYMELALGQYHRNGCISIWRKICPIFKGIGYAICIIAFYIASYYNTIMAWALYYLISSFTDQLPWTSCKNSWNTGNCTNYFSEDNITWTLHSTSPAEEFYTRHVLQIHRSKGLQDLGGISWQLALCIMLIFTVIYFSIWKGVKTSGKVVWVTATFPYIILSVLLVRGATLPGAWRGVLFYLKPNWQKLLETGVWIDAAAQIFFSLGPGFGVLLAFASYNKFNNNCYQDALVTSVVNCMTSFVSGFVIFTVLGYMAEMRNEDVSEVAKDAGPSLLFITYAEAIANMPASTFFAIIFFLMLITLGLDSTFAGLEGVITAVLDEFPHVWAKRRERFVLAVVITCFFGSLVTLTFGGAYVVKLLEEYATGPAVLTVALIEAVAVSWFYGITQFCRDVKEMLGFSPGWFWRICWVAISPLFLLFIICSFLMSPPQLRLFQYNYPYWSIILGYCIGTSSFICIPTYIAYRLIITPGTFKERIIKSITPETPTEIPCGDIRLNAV

Thromboxane A2 receptor = target: T4, Thromboxane A2 receptor (Homo sapiens, UniProt P21731); type: functional, cell-based
T4 sequence (P21731 whole entry): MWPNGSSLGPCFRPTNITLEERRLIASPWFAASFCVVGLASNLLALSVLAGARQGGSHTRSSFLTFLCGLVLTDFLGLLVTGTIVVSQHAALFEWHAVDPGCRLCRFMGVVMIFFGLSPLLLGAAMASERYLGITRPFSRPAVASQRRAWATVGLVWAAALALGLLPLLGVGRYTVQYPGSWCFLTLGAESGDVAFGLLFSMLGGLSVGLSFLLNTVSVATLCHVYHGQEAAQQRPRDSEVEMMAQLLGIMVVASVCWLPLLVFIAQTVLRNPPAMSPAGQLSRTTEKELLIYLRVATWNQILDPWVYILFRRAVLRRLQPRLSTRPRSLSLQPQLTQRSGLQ

[7] = target: T5, Amine oxidase [flavin-containing] A (Homo sapiens, UniProt P21397); type: functional
T5 sequence (P21397 whole entry): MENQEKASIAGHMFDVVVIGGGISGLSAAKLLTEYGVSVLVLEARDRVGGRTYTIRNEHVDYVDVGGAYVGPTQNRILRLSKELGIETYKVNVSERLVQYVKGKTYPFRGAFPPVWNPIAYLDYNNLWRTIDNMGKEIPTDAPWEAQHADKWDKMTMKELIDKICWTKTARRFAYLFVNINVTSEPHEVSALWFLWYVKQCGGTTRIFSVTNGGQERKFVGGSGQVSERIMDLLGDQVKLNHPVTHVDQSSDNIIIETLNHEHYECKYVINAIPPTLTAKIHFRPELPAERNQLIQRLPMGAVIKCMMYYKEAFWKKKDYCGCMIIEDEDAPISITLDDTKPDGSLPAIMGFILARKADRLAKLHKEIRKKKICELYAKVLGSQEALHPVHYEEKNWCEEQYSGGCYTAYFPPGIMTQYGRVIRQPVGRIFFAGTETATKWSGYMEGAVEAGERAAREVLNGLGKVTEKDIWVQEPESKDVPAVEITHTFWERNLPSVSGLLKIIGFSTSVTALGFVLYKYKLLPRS

Measured: AC50
Note: assay procedure not described here.

O=C(O)c1cccc(-c2noc(-c3ccccc3F)n2)c1
> 30 µM: all assays above

Nc1ccc(C(=O)O)cc1 [AMINOBENZOIC ACID]
4.69 µM: [3]
> 30 µM: all other assays above

CCCC1C(=O)N2C(N(C)C)=Nc3ccc(C)cc3N2C1=O (stereo unspecified) [APAZONE]
8.41 µM: [3]
> 30 µM: all other assays above

CCS(=O)(=O)N1CC(CC#N)(n2cc(-c3ncnc4[nH]ccc34)cn2)C1 [BARICITINIB]
> 30 µM: all assays above

O=C1CN=C(c2ccccc2)c2c(sc3c2CCCC3)N1 [BENTAZEPAM]
14.8 µM: Progesterone receptor
1.55 µM: [5]
> 30 µM: all other assays above

O=C(O)CCCN1CCC(O[C@@H](c2ccc(Cl)cc2)c2ccccn2)CC1 [BEPOTASTINE]
> 30 µM: all assays above

CCCCN(CCCC)CCCOC(=O)c1ccc(N)cc1 [BUTACAINE]
2.97 µM: [5]
not listed: Progesterone receptor
> 30 µM: all other assays above

CCCC[N+]1(C)[C@@H]2C[C@@H](OC(=O)[C@H](CO)c3ccccc3)C[C@H]1[C@@H]1O[C@@H]12 (stereo partly specified) [BUTYLSCOPOLAMINE]
> 30 µM: all assays above
